US9896479B2, “Functionalized naphthalene fluorophores” (Kay M. Brummond, priority 2012, dated 2018)

Experiments:
[1] = Absorption spectra (absorption maxima) of dyes in organic solvents; type: physicochemical
Description: (§1) All commercially available compounds were purchased from Aldrich Chemical Co., GFS Chemicals, Strem Chemicals, Acros Organics, Alfa Aesar, and Advanced Chemtech and used as received, except for p-toluenesulfonyl hydrazide, which was recrystallized from methanol. Amines were purchased from Aldrich Chemical Co. as purified by redistillation and used as received. Tetrahydrofuran (THF), diethyl ether (Et2O), and dichloromethane (CH2Cl2) were purified by passing through alumina using the Sol-Tek ST-002 solvent purification system. Acetonitrile (MeCN) and toluene were freshly distilled from CaH2 prior to use. Benzene was freshly distilled from sodium/benzophenone prior to use Anhydrous N,N-dimethylformamide (DMF), 1,2-dichloroethane (DCE), and 1,4-dioxane were purchased and used as received from Aldrich Chemical Co. Purification of the compounds by flash column chromatography was performed using silica gel (32-63 μm particle size, 60 Å pore size) purchased from Silicycle, or by using a Biotage Horizon flash purification system with either Biotage SNAP KP-SIL silica cartridges, or Teledyne ISCO RediSep Rf normal phase disposable flash columns (40-60 micron). TLC analyses were performed on EMD Chemicals Silica Gel 60 F254 glass plates (250 μm thickness). ^1H NMR and ^13C NMR spectra were recorded on Bruker Avance 300 MHz, 500 MHz, or 600 MHz spectrometers. Spectra were referenced to residual chloroform (7.27 ppm, ^1H, 77.0 ppm, ^13C) or 1,2-dichlorobenzene (6.93 ppm, ^1H, 127.19 ppm, ^13C). Chemical shifts are reported in ppm, multiplicities are indicated by s (singlet), d (doublet), t (triplet), q (quartet), p (pentet), and m (multiplet). Coupling constants, J, are reported in hertz (Hz). All NMR spectra were obtained at room temperature unless otherwise specified. IR spectra were obtained using a Nicolet Avatar E.S.P. 360 FT-IR. EI mass spectroscopy was performed on a Waters Micromass GCT high resolution mass spectrometer. ES mass spectroscopy was performed on a Waters Q-TOF Ultima API, Micromass UK Limited high resolution mass spectrometer. GC mass spectrometry was performed on a Shimadzu GCMS-17A/QP5050A spectrometer. All microwave-mediated reactions were carried out using a Biotage Initiator™ Exp microwave synthesizer. The microwave parameters were set to variable power, constant temperature, with the fixed hold time set to on. The microwave reactions were carried out in 0.2-0.5 mL, 0.5-2 mL, 2-5 mL, or 10-20 mL Biotage microwave vials. […] Absorption and fluorescence spectra were recorded on Lambda 9 spectrophotometer (Perkin Elmer) and FluoroMax-3 spectrofluorometer (Jobin Yvon, Horiba), respectively. Fluorescence quantum yields were determined by taking Prodan in DMSO (quantum yield, QY=91%) as a reference. The quantum yield values were corrected for the solvent refractive index. For spectroscopic measurements, 10^−5 M solutions of dyes in 10 mm quartz-cuvettes were used (excitation wavelength was 334 nm; slits open to 2 nm).

[2] = Fluorescence emission spectra (emission maxima, Stokes and bathochromic shifts); type: physicochemical; details: for emission maximum: in dichloromethane (DCM); for Bathochromic shift: across Toluene, CH2Cl2, DMSO (Table 3)
Description: as §1

Compound | emission maximum [2] [nm] | λabs (absorption maxima) ([1]; CH2Cl2 (Table 3)) [nm] | λabs (absorption maxima) ([1]; DMSO (Table 3)) [nm] | λabs (absorption maxima) ([1]; Toluene (Table 3)) [nm] | SS (Stokes shift) ([2]; CH2Cl2 (Table 3)) [nm] | λem (emission maxima) ([2]; CH2Cl2 (Table 3)) [nm] | SS (Stokes shift) ([2]; DMSO (Table 3)) [nm] | λem (emission maxima) ([2]; DMSO (Table 3)) [nm] | SS (Stokes shift) ([2]; Toluene (Table 3)) [nm] | λem (emission maxima) ([2]; Toluene (Table 3)) [nm] | Bathochromic shift [2] [nm] | also measured
1-(6-(Dimethylamino)-2,3-dihydro-1H-cyclopenta[b]naphthalen-4-yl)ethanone [Compound 10] | 531 | – | – | – | – | – | – | – | – | – | – | absorption maximum ([1]; in DCM): 324 nm; Stokes shift ([2]; in DCM): 207 nm
1-(8-(dimethylamino)-2,3-dihydro-1H-cyclopenta[b]naphthalen-4-yl)ethanone [Compound 12] | – | – | – | – | – | – | – | – | – | – | – | absorption and emission maxima compared with fluorophore 102a ([2]; in DCM): comparable to those observed for fluorophore 102a
CC(=O)c1c2c(cc3c(N(C)C)cccc13)CC(CO)(CO)C2 [7a] | 567 | – | – | – | – | – | – | – | – | – | – | –
CN(C)c1cccc2c(C(=O)C(C)(C)C)c3c(cc12)CC(CO)(CO)C3 [7b] | – | 320 | 320 | 318 | 210 | 530 | 241 | 561 | 175 | 493 | 68 | –
CN(C)c1ccc2cc3c(c(-c4ccc(CO)cc4)c2c1)C(=O)CC3 [15b] | – | 427 | 427 | 424 | 110 | 537 | 147 | 574 | 80 | 504 | 70 | –
CC(=O)c1c2c(cc3ccccc13)CCC2 [Compound 6a, 1-(2,3-Dihydro-1H-cyclopenta[b]naphthalen-4-yl)ethanone] | 566 | – | – | – | – | – | – | – | – | – | – | –
